Measurements from patent publication US8048915B2, “Biologically active complex” (BioMas Ltd., priority 2001, dated 2011).
Where “and” joins values, the source holds several entries; their conditions need not be identical. Equal values may be shown once. Read-outs that look alike come from different tables or passages of the source.

Key:
[1] = test system: Ha-Ras transformed NIH-3T3 cells; assay: Colony growth of Ha-Ras transformed NIH-3T3 cells; format: cell-based; conditions: 0.005-5 μg/ml in PBS; one week; clones counted
Protocol: (§1) 5×10^2 cells were plated per 60 mm dish and incubated with different concentrations (0.005-5 μg/ml) of the complex in PBS. A week later, the cells were stained with Gimsa and clones were counted. Similar experiments were conducted using V-mos transformed NIH-3T3 cells, and also using Ph2TeCl2 and Ph3TeCl, with both types of transformed cells.

[2] = test system: V-mos transformed NIH-3T3 cells; assay: Colony growth of V-mos transformed NIH-3T3 cells; format: cell-based; conditions: one week; clones counted
Protocol: as §1

[3] = Solubility in phosphate buffer solution (PBS) at pH7; format: physicochemical
[4] = test system: IL-2 receptors of human mononuclear cells; assay: Induction of IL-2 receptors of human mononuclear cells (proliferation with recombinant IL-2, 3H thymidine uptake); format: cell-based
Protocol: Human MNC were brought to a concentration of 10^6 cells/ml. RPMI+10% FCS. Aliquots of 0.2 ml. were placed in duplicate wells of microdishes and plates were incubated at 37° C. for 24 hrs. […] Plates were further incubated for 48 hrs and labeled with ^3H thymidine 24 hrs before harvesting. The proliferation was measured by ^3HT uptake as described by Gillis et al, J. Immunol. […] The results are expressed in counts per minute.

[5] = test system: human mononuclear cells; assay: Proliferation of human mononuclear cells (Example 14); format: cell-based; conditions: for proliferation of human mononuclear cells (3H methyl-thymidine): 72 hours + 24 hours label
Protocol: Human mononuclear cells were obtained by layering heparinized blood over a Ficoll/Hypaque gradient. The mononuclear cells were resuspended in enriched RPMI, rinsed three times and brought to a concentrations of 5×10^5cells/ml enriched RPMI. Varying concentrations of the complexes of Ex. 1 and Ex. 7(a), ranging from 0.005 μg to 5 μg/cell mixture were added to the cells. Aliquots of 0.2 ml of each sample were placed in wells of microplates (triplicates).

[6] = test system: IL-2 receptors; assay: IL-2 receptor sites on human mononuclear cells, fluoresceinated antibody; format: cell-based
Protocol: This example provides an assay to detect the presence of receptor sites for IL-2. […] The cells were washed twice with PBS and then incubated with a specific fluoresceinated antibody against IL-2 receptors as described in Uchiyama et al, J. Immunol.

[7] = test system: human mononuclear cells; assay: Proliferation of human mononuclear cells (Example 14); format: cell-based; conditions: 72 hours + 24 hours label
[8] = test system: human mononuclear cells; conditions: range of 1 to 10 ng/ml of cells; 72 hours incubation
Protocol: Aliquots of 0.2 ml from each sample were placed in wells of microplates (NUNC) (triplicates). […] Cells were further incubated overnight and harvested with a cell harvester.
Cells were further incubated overnight and harvested with a cell harvester.

[9] = test system: IL-2
Protocol: The complexes were administered in these dilutions, as drinking water, to male Balb-C mice, 6-8 weeks of age over a 4 day period. The exact amount of liquid intake was recorded daily. […] The cells were incubated at a concentration of 10^7 cells/ml in enriched RPMI containing 2 μg/ml of con-A for 24 hours at 37° C. The supernatants were collected and tested for IL-2 content.

[10] = 10 μg/ml H2O as drinking water over 4 days

In the case of Cl[Te](Cl)(c1ccccc1)c1ccccc1 [Ph2TeCl2, reference compound], the “number of colonies / growth compared with control” value [1] is reported as “did not inhibit their growth” and the inhibition of growth [2] is reported as “none of the complex, Ph2TeCl2 or Ph3TeCl inhibited the growth”.

In the case of Cl[Te](c1ccccc1)(c1ccccc1)c1ccccc1 [Ph3TeCl, reference compound], the “number of colonies / growth compared with control” value [1] is reported as “did not inhibit their growth” and the inhibition of growth [2] is reported as “none of the complex, Ph2TeCl2 or Ph3TeCl inhibited the growth”.

For Cl[Te](Cl)(Cl)Cl [TeCl4, tellurium tetrachloride], the solubility [3] was 2.3 ± 0.1; mg Te/100 ml PBS.

For O=[Te]=O [TeO2, Tellurium dioxide, reference compound], the “proliferation, 3HT uptake” value ([4]; Test A, 1 μg/ml) was 1563 counts per minute, the “proliferation, 3HT uptake” value ([4]; Test A, 1 × 10^−2 μg/ml) was 3108 counts per minute and the “proliferation, 3HT uptake” value ([4]; Test A, 1 × 10^−3 μg/ml) was 2867 counts per minute. For the same molecule, the “proliferation, 3HT uptake” value ([4]; Test A, 1 × 10^−4 μg/ml) was 5540 counts per minute, the “proliferation, 3HT uptake” value ([4]; Test A, 1 × 10^−5 μg/ml) was 3442 counts per minute and the “proliferation, 3HT uptake” value ([4]; Test A, 5 × 10^−1 μg/ml) was 4667 counts per minute. The “proliferation, 3HT uptake” value ([4]; Test A, 5 × 10^−2 μg/ml) was 2515 counts per minute, the “proliferation, 3HT uptake” value ([4]; Test A, 7 × 10^−1 μg/ml) was 2475 counts per minute and the “proliferation, 3HT uptake” value ([4]; Test B, 1 μg/ml) was 3275 counts per minute. The “proliferation, 3HT uptake” value ([4]; Test B, 1 × 10^−2 μg/ml) was 3077 counts per minute, the “proliferation, 3HT uptake” value ([4]; Test B, 1 × 10^−3 μg/ml) was 3800 counts per minute and the “proliferation, 3HT uptake” value ([4]; Test B, 1 × 10^−4 μg/ml) was 2925 counts per minute. The “proliferation, 3HT uptake” value ([4]; Test B, 1 × 10^−5 μg/ml) was 3645 counts per minute, the “proliferation, 3HT uptake” value ([4]; Test B, 5 × 10^−1 μg/ml) was 5405 counts per minute and the “proliferation, 3HT uptake” value ([4]; Test B, 5 × 10^−2 μg/ml) was 4280 counts per minute. The “proliferation, 3HT uptake” value ([4]; Test B, 7 × 10^−1 μg/ml) was 4302 counts per minute, the “proliferation of human mononuclear cells (3H methyl-thymidine)” value (shortened to “proliferation … (3H methyl-thymidine)”) ([5]; 1 μg/ml) was 2842 and the “proliferation … (3H methyl-thymidine)” value ([5]; 5 μg/ml) was 3028. For the same molecule, the “proliferation … (3H methyl-thymidine)” value ([5]; 1 × 10^−1 μg/ml) was 4825, the “proliferation … (3H methyl-thymidine)” value ([5]; 1 × 10^−2 μg/ml) was 4730 and the “proliferation … (3H methyl-thymidine)” value ([5]; 5 × 10^−1 μg/ml) was 4773. The “proliferation … (3H methyl-thymidine)” value ([5]; 5 × 10^−2 μg/ml) was 5802, the “effect on proliferation of human mononuclear cells” value ([5]; any concentration that was tested) was “*The concentrations that induced proliferation range from 5 × 10^−1 to 1 × 10^−1 μg. No significant effect was found for TeO2 at any concentration that was tested” and the “cells positive for IL-2 receptors” value ([6]; 1 μg/ml, 24 hours incubation) was 5%. For the same molecule, the “proliferation … (3H methyl-thymidine)” value ([7]; 1 × 10^−3 μg/ml) was 6168 and the “proliferation … (3H methyl-thymidine)” value ([7]; 1 × 10^−4 μg/ml) was 5331.

With C1CO[Te]2(O1)OCCO2 [preparation 3] the solubility [3] was 16 ± 0.4; mg Te/100 ml PBS.

For “Phytohemagglutinin M [Phytohemagglutinin M (Difco), reference compound]”, the “proliferation, 3HT uptake” value ([4]; Test A, positive control, concentration not given) was “Phytohemagglutinin M (Difco) 195,432 counts per minute”, the “proliferation, 3HT uptake” value ([4]; Test B, positive control, concentration not given) was “Phytohemagglutinin M (Difco) 125,272 counts per minute” and the “cells positive for IL-2 receptors” value ([6]; in the presence of PHA, concentration not given) was 80%.

For “equimolar complex of TeO2 and ethane-1,2-diol [7(b)]”, the “proliferation, 3HT uptake” value ([4]; Test B, 1 μg/ml) was 2620 counts per minute, the “proliferation, 3HT uptake” value ([4]; Test B, 1 × 10^−2 μg/ml) was 3928 counts per minute and the “proliferation, 3HT uptake” value ([4]; Test B, 1 × 10^−3 μg/ml) was 3007 counts per minute. For the same molecule, the “proliferation, 3HT uptake” value ([4]; Test B, 1 × 10^−4 μg/ml) was 2327 counts per minute, the “proliferation, 3HT uptake” value ([4]; Test B, 1 × 10^−5 μg/ml) was 2242 counts per minute and the “proliferation, 3HT uptake” value ([4]; Test B, 5 × 10^−1 μg/ml) was 2402 counts per minute. For the same molecule, the “proliferation, 3HT uptake” value ([4]; Test B, 5 × 10^−2 μg/ml) was 3290 counts per minute and the “proliferation, 3HT uptake” value ([4]; Test B, 7 × 10^−1 μg/ml) was 2000 counts per minute.

With “equimolar complex of TeO2 and ethylene glycol [Example 7(a)]” the “increase of proliferation of human mononuclear cells” value [8] was 10 fold, the “IL-2 content, cpm” value ([9]; 1 μg/ml H2O as drinking water over 4 days) was 32843 cpm and the “IL-2 content, cpm” value [9, 10] was 42500 cpm. The “Percent increase as compared to control” value [9, 10] was “+30%”, the “IL-2 content, cpm” value ([9]; 25 μg/ml H2O as drinking water over 4 days) was 36815 cpm and the “inducing lymphokine production when given orally” value ([9]; orally in an aqueous diluent) was “active”. For the same molecule, the “proliferation, 3HT uptake” value ([4]; Test B, 1 μg/ml) was 9315 counts per minute, the “proliferation, 3HT uptake” value ([4]; Test B, 1 × 10^−2 μg/ml) was 6418 counts per minute and the “proliferation, 3HT uptake” value ([4]; Test B, 1 × 10^−3 μg/ml) was 5167 counts per minute. For the same molecule, the “proliferation, 3HT uptake” value ([4]; Test B, 1 × 10^−4 μg/ml) was 5372 counts per minute, the “proliferation, 3HT uptake” value ([4]; Test B, 1 × 10^−5 μg/ml) was 6397 counts per minute and the “proliferation, 3HT uptake” value ([4]; Test B, 5 × 10^−1 μg/ml) was 8688 counts per minute. The “proliferation, 3HT uptake” value ([4]; Test B, 5 × 10^−2 μg/ml) was 5538 counts per minute, the “proliferation, 3HT uptake” value ([4]; Test B, 7 × 10^−1 μg/ml) was 5250 counts per minute and the “proliferation … (3H methyl-thymidine)” value ([5]; 1 × 10^−4 μg/ml, listed as Ex. 7(a)) was 4321 and 2332. The “proliferation … (3H methyl-thymidine)” value ([5]; 5 × 10^−2 μg/ml, listed as Ex. 7(a)) was 5953 and 5532.
